Biological target: T1, Solute carrier family 15 member 2 (Rattus norvegicus) (UniProt Q63424)
T1 sequence (whole entry): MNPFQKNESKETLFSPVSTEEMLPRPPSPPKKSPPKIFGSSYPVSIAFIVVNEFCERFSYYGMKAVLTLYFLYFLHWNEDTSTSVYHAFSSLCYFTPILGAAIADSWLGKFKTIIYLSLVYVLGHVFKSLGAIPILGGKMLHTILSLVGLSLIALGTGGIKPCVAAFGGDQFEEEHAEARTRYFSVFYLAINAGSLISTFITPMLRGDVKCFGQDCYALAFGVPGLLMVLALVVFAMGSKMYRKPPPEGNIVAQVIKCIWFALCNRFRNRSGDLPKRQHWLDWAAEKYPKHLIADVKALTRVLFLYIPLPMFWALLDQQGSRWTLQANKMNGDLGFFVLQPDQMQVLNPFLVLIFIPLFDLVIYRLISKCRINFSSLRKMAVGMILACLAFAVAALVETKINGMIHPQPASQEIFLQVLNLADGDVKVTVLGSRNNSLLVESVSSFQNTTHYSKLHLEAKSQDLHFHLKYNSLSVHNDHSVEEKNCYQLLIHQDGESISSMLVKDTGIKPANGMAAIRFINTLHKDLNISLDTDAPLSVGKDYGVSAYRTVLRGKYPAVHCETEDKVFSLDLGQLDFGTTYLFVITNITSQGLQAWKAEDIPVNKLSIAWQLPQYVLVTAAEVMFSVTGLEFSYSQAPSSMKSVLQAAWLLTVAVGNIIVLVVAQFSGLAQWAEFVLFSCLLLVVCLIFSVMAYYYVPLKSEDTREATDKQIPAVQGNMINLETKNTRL
Experiment: TP_TRANSPORTER: uptake in Xenopus laevis oocytes
Type: functional, cell-based
Details: Oocyte

Activity: substrate [+]
SMILES: CC(C)C[C@H](NC(=O)[C@@H](O)[C@H](N)Cc1ccccc1)C(=O)O
